Organism: Rattus norvegicus
Test: DrugMatrix - Regimen: Daily Repeat
Type: toxicity, organism-based, Sprague-Dawley
Parameters: regimen Daily Repeat, gender Male, age 6-8 weeks
Conditions: in vivo, po, route oral GAVAGE, vehicle .5 % CMC; for ABSOLUTE BASOPHIL / ABSOLUTE EOSINOPHIL / ABSOLUTE LYMPHOCYTE / ABSOLUTE MONOCYTE / ABSOLUTE SEGMENTED NEUTROPHIL / BASOPHIL / EOSINOPHIL / ERYTHROCYTE COUNT / HEMATOCRIT / HEMOGLOBIN / LEUKOCYTE COUNT / LYMPHOCYTE / MEAN CORPUSCULAR HEMOGLOBIN / MEAN CORPUSCULAR HEMOGLOBIN CONCENTRATION / MEAN CORPUSCULAR VOLUME / MONOCYTE / NEUTROPHIL / NUCLEATED RED BLOOD CELLS / PLATELET COUNT: tissue Blood; for ALANINE AMINOTRANSFERASE / ALBUMIN / ALKALINE PHOSPHATASE / ASPARTATE AMINOTRANSFERASE / BLOOD UREA NITROGEN / CARBON DIOXIDE / CHLORIDE / CHOLESTEROL / CREATINE PHOSPHOKINASE / CREATININE / GLUCOSE / LACTATE DEHYDROGENASE / LIPASE / PHOSPHORUS / POTASSIUM / SODIUM / TOTAL BILIRUBIN / TOTAL PROTEIN / URIC ACID: tissue Plasma
[1] = 0 mg/kg, 72 h, dose level Control, time 3 day
[2] = 0 mg/kg, 120 h, dose level Control, time 5 day
[3] = 3 mg/kg, 72 h, dose level Low, time 3 day

COc1nc(C)nc(Cl)c1N=C1NCCN1 [MOXONIDINE]
ABSOLUTE BASOPHIL [1]: 0 CELLS/uL | ABSOLUTE EOSINOPHIL [1]: 47.67 CELLS/uL | ABSOLUTE LYMPHOCYTE [1]: 15937.67 CELLS/uL | ABSOLUTE MONOCYTE [1]: 138.33 CELLS/uL | ABSOLUTE SEGMENTED NEUTROPHIL [1]: 1443 CELLS/uL | BASOPHIL [1]: 0% | EOSINOPHIL [1]: 0.33% | ERYTHROCYTE COUNT [1]: 5.45 x10E6/uL | HEMATOCRIT [1]: 34.43% | HEMOGLOBIN [1]: 13.38 G/DL | LEUKOCYTE COUNT [1]: 17.57 x10E3/uL | LYMPHOCYTE [1]: 90.33% | MEAN CORPUSCULAR HEMOGLOBIN [1]: 24.6 pg | MEAN CORPUSCULAR HEMOGLOBIN CONCENTRATION [1]: 38.88 G/DL | MEAN CORPUSCULAR VOLUME [1]: 63.27 fL | MONOCYTE [1]: 0.83% | NEUTROPHIL [1]: 8.5% | NUCLEATED RED BLOOD CELLS [1]: 0 /100WBC | PLATELET COUNT [1]: 1298 x10E3/uL | ALANINE AMINOTRANSFERASE [1]: 47.67 u/L | ALBUMIN [1]: 4.18 G/DL | ALKALINE PHOSPHATASE [1]: 398.5 u/L | ASPARTATE AMINOTRANSFERASE [1]: 93.17 u/L | BLOOD UREA NITROGEN [1]: 16 mg/dL | CARBON DIOXIDE [1]: 29.17 mmol/L | CHLORIDE [1]: 98.17 MEQ/L | CHOLESTEROL [1]: 68.83 mg/dL | CREATINE PHOSPHOKINASE [1]: 467.33 u/L | CREATININE [1]: 0.14 mg/dL | GLUCOSE [1]: 151.67 mg/dL | LACTATE DEHYDROGENASE [1]: 597.5 u/L | LIPASE [1]: 9.33 u/L | PHOSPHORUS [1]: 11.97 mg/dL | POTASSIUM [1]: 6.43 MEQ/L | SODIUM [1]: 140.68 MEQ/L | TOTAL BILIRUBIN [1]: 0.18 mg/dL | TOTAL PROTEIN [1]: 5.82 G/DL | URIC ACID [1]: 1.48 mg/dL | ABSOLUTE BASOPHIL [2]: 0 CELLS/uL | ABSOLUTE EOSINOPHIL [2]: 31 CELLS/uL | ABSOLUTE LYMPHOCYTE [2]: 14327.83 CELLS/uL | ABSOLUTE MONOCYTE [2]: 102.83 CELLS/uL | ABSOLUTE SEGMENTED NEUTROPHIL [2]: 1321.67 CELLS/uL | BASOPHIL [2]: 0% | EOSINOPHIL [2]: 0.17% | ERYTHROCYTE COUNT [2]: 5.79 x10E6/uL | HEMATOCRIT [2]: 36.1% | HEMOGLOBIN [2]: 14.15 G/DL | LEUKOCYTE COUNT [2]: 15.78 x10E3/uL | LYMPHOCYTE [2]: 90.5% | MEAN CORPUSCULAR HEMOGLOBIN [2]: 24.48 pg | MEAN CORPUSCULAR HEMOGLOBIN CONCENTRATION [2]: 39.22 G/DL | MEAN CORPUSCULAR VOLUME [2]: 62.4 fL | MONOCYTE [2]: 0.67% | NEUTROPHIL [2]: 8.67% | NUCLEATED RED BLOOD CELLS [2]: 0.17 /100WBC | PLATELET COUNT [2]: 1211.67 x10E3/uL | ALANINE AMINOTRANSFERASE [2]: 49 u/L | ALBUMIN [2]: 4.27 G/DL | ALKALINE PHOSPHATASE [2]: 356.67 u/L | ASPARTATE AMINOTRANSFERASE [2]: 90.17 u/L | BLOOD UREA NITROGEN [2]: 20.5 mg/dL | CARBON DIOXIDE [2]: 29.17 mmol/L | CHLORIDE [2]: 98 MEQ/L | CHOLESTEROL [2]: 69.83 mg/dL | CREATINE PHOSPHOKINASE [2]: 312 u/L | CREATININE [2]: 0.21 mg/dL | GLUCOSE [2]: 149.83 mg/dL | LACTATE DEHYDROGENASE [2]: 322 u/L | LIPASE [2]: 10 u/L | PHOSPHORUS [2]: 12 mg/dL | POTASSIUM [2]: 6.75 MEQ/L | SODIUM [2]: 142.8 MEQ/L | TOTAL BILIRUBIN [2]: 0.17 mg/dL | TOTAL PROTEIN [2]: 6.1 G/DL | URIC ACID [2]: 1.68 mg/dL | ABSOLUTE BASOPHIL [3]: 0 CELLS/uL | ABSOLUTE EOSINOPHIL [3]: 88 CELLS/uL | ABSOLUTE LYMPHOCYTE [3]: 13570 CELLS/uL | ABSOLUTE MONOCYTE [3]: 44 CELLS/uL | ABSOLUTE SEGMENTED NEUTROPHIL [3]: 1298 CELLS/uL | BASOPHIL [3]: 0% | EOSINOPHIL [3]: 0.67% | ERYTHROCYTE COUNT [3]: 5.63 x10E6/uL | HEMATOCRIT [3]: 34.87% | HEMOGLOBIN [3]: 13.07 G/DL | LEUKOCYTE COUNT [3]: 15 x10E3/uL | LYMPHOCYTE [3]: 89.67% | MEAN CORPUSCULAR HEMOGLOBIN [3]: 23.2 pg | MEAN CORPUSCULAR HEMOGLOBIN CONCENTRATION [3]: 37.5 G/DL | MEAN CORPUSCULAR VOLUME [3]: 61.9 fL | MONOCYTE [3]: 0.33% | NEUTROPHIL [3]: 9.33% | NUCLEATED RED BLOOD CELLS [3]: 0 /100WBC | PLATELET COUNT [3]: 1254.67 x10E3/uL | ALANINE AMINOTRANSFERASE [3]: 48 u/L | ALBUMIN [3]: 4 G/DL | ALKALINE PHOSPHATASE [3]: 327.67 u/L | ASPARTATE AMINOTRANSFERASE [3]: 95 u/L | BLOOD UREA NITROGEN [3]: 17 mg/dL | CARBON DIOXIDE [3]: 29 mmol/L | CHLORIDE [3]: 99.33 MEQ/L | CHOLESTEROL [3]: 69.67 mg/dL | CREATINE PHOSPHOKINASE [3]: 328.67 u/L | CREATININE [3]: 0.17 mg/dL | GLUCOSE [3]: 144 mg/dL | LACTATE DEHYDROGENASE [3]: 269.67 u/L | LIPASE [3]: 10.33 u/L | PHOSPHORUS [3]: 12.07 mg/dL | POTASSIUM [3]: 5.9 MEQ/L | SODIUM [3]: 142.9 MEQ/L | TOTAL BILIRUBIN [3]: 0.23 mg/dL | TOTAL PROTEIN [3]: 5.53 G/DL | URIC ACID [3]: 1.4 mg/dL
